Converted amounts (≈) assume the structure as drawn. One block for each compound: values may come before it.
Experiments:
Test in all cases: In vitro antibacterial evaluation: minimum inhibitory concentration (MIC), broth dilution method
Format in all cases: cell-based
Streptococcus sp. = details: broth dilution, 18 hours at 35° C.
Summary of the method: (§1)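 Broth dilution per NCCLS M7-A2 in Muller-Hinton II […], inoculum 5×10^5 CFU/mL, antibiotic tested over 64-0.06 μg/mL. MIC is taken as the lowest concentration that inhibits growth. Panel includes recent clinical isolates resistant to methicillin, penicillin and/or vancomycin.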

Enterococcus sp. = details: broth dilution, 18 hours at 35° C.
Summary of the method: as §1

Staphylococcus sp. = details: broth dilution, 18 hours at 35° C.; for MIC Staphylococcus aureus-SMITH (GC 4543): strain SMITH GC 4543
Summary of the method: as §1

Escherichia coli = details: broth dilution, 18 hours at 35° C.
[1] = Streptococcus agalactiae (GC 4564)
[2] = Streptococcus pneumoniae (ATCC 6301)
[3] = Streptococcus pneumoniae (GC 1894)
[4] = Streptococcus pneumoniae (GC 4565)
[5] = Streptococcus pyogenes (GC 4563)
[6] = Enterococcus faecalis (GC 4553)

MIC Streptococcus agalactiae (GC 4564) (Streptococcus sp.; [1]): 8 µg/mL (≈ 6.7 µM)
MIC Streptococcus pneumoniae (ATCC 6301) (Streptococcus sp.; [2]): 8 µg/mL (≈ 6.7 µM)
MIC Streptococcus pneumoniae (GC 1894) (Streptococcus sp.; [3]): 8 µg/mL (≈ 6.7 µM)
MIC Streptococcus pneumoniae (GC 4565) (Streptococcus sp.; [4]): 16 µg/mL (≈ 13.4 µM)
MIC Streptococcus pyogenes (GC 4563) (Streptococcus sp.; [5]): 2 µg/mL (≈ 1.67 µM)
MIC Streptococcus agalactiae (GC 4564) (Streptococcus sp.): 8 µg/mL (≈ 6.7 µM)
MIC Streptococcus pneumoniae (ATCC 6301) (Streptococcus sp.): 8 µg/mL (≈ 6.7 µM)
MIC Streptococcus pneumoniae (GC 1894) (Streptococcus sp.): 8 µg/mL (≈ 6.7 µM)
MIC Streptococcus pneumoniae (GC 4565) (Streptococcus sp.): 16 µg/mL (≈ 13.4 µM)
MIC Streptococcus pyogenes (GC 4563) (Streptococcus sp.): 2 µg/mL (≈ 1.67 µM)
MIC Enterococcus avium (GC 4558) (Enterococcus sp.; Enterococcus avium (GC 4558)): 8 µg/mL (≈ 6.7 µM)
MIC Enterococcus faecalis (ATCC 29212) (Enterococcus sp.; Enterococcus faecalis (ATCC 29212)): 16 µg/mL (≈ 13.4 µM)
MIC Enterococcus faecalis (GC 2242) (Enterococcus sp.; Enterococcus faecalis (GC 2242)): 16 µg/mL (≈ 13.4 µM)
MIC Enterococcus faecalis (GC 2691) (Enterococcus sp.; Enterococcus faecalis (GC 2691)): 16 µg/mL (≈ 13.4 µM)
MIC Enterococcus faecalis (GC 3059) (Enterococcus sp.; Enterococcus faecalis (GC 3059)): 32 µg/mL (≈ 26.8 µM)
MIC Enterococcus faecalis (GC 4552) (Enterococcus sp.; Enterococcus faecalis (GC 4552)): 32 µg/mL (≈ 26.8 µM)
MIC Enterococcus faecalis (GC 4553) (Enterococcus sp.; [6]): 8 µg/mL (≈ 6.7 µM)
MIC Enterococcus faecalis (GC 4554) (Enterococcus sp.; Enterococcus faecalis (GC 4554)): 32 µg/mL (≈ 26.8 µM)
MIC Enterococcus faecalis (GC 6189) (Enterococcus sp.; Enterococcus faecalis (GC 6189)): 16 µg/mL (≈ 13.4 µM)
MIC Enterococcus faecium (GC 2243) (Enterococcus sp.; Enterococcus faecium (GC 2243)): 8 µg/mL (≈ 6.7 µM)
MIC Enterococcus faecium (GC 4556) (Enterococcus sp.; Enterococcus faecium (GC 4556)): 32 µg/mL (≈ 26.8 µM)
MIC Enterococcus faecium (GC 4557) (Enterococcus sp.; Enterococcus faecium (GC 4557)): 4 µg/mL (≈ 3.35 µM)
MIC Enterococcus avium (GC 4558) (Enterococcus sp.): 8 µg/mL (≈ 6.7 µM)
MIC Enterococcus faecalis (ATCC 29212) (Enterococcus sp.): 16 µg/mL (≈ 13.4 µM)
MIC Enterococcus faecalis (GC 2242) (Enterococcus sp.): 16 µg/mL (≈ 13.4 µM)
MIC Enterococcus faecalis (GC 2691) (Enterococcus sp.): 16 µg/mL (≈ 13.4 µM)
MIC Enterococcus faecalis (GC 3059) (Enterococcus sp.): 32 µg/mL (≈ 26.8 µM)
MIC Enterococcus faecalis (GC 4552) (Enterococcus sp.): 32 µg/mL (≈ 26.8 µM)
MIC Enterococcus faecalis (GC 4553) (Enterococcus sp.): 8 µg/mL (≈ 6.7 µM)
MIC Enterococcus faecalis (GC 4554) (Enterococcus sp.): 32 µg/mL (≈ 26.8 µM)
MIC Enterococcus faecalis (GC 6189) (Enterococcus sp.): 16 µg/mL (≈ 13.4 µM)
MIC Enterococcus faecium (GC 2243) (Enterococcus sp.): 8 µg/mL (≈ 6.7 µM)
MIC Enterococcus faecium (GC 4556) (Enterococcus sp.): 32 µg/mL (≈ 26.8 µM)
MIC Enterococcus faecium (GC 4557) (Enterococcus sp.): 4 µg/mL (≈ 3.35 µM)
MIC Coagulase Negative Staphylococcus (GC 4547) (Staphylococcus sp.): 8 µg/mL (≈ 6.7 µM)
MIC Coagulase Negative Staphylococcus (GC 4548) (Staphylococcus sp.): 8 µg/mL (≈ 6.7 µM)
MIC Coagulase Negative Staphylococcus (GC 4549) (Staphylococcus sp.): 8 µg/mL (≈ 6.7 µM)
MIC Coagulase Negative Staphylococcus (GC 4551) (Staphylococcus sp.): 8 µg/mL (≈ 6.7 µM)
MIC Coagulase Negative Staphylococcus (GC 6257) (Staphylococcus sp.): 2 µg/mL (≈ 1.67 µM)
MIC Staphylococcus aureus SMITH (GC 4543) (Staphylococcus sp.): 8 µg/mL (≈ 6.7 µM)
MIC Staphylococcus aureus-SMITH (GC 4543) (Staphylococcus sp.): 8 µg/mL (≈ 6.7 µM)
MIC Escherichia coli (GC 4560) (Escherichia coli): 16 µg/mL (≈ 13.4 µM)
SMILES: COc1ccc(Oc2cccc(-c3nc4cc(CC5NC(=O)C(C(C)c6ccccc6)NC(=O)CNC(=O)C(CO)NC(=O)C(C(O)C6CNC(=N)N6C6OC(CO)C(O)C(O)C6O)NC(=O)C(C(O)C6CNC(=N)N6)NC5=O)ccc4o3)c2)cc1 (stereo not shown) [Example 35]
MIC Staphylococcus haemolyticus (GC 4546) (Staphylococcus sp.): 8 µg/mL (≈ 6.7 µM)

MIC Streptococcus agalactiae (GC 4564) (Streptococcus sp.; [1]): 32 µg/mL (≈ 30.1 µM)
MIC Streptococcus pneumoniae (ATCC 6301) (Streptococcus sp.; [2]): 32 µg/mL (≈ 30.1 µM)
MIC Streptococcus pneumoniae (GC 1894) (Streptococcus sp.; [3]): 32 µg/mL (≈ 30.1 µM)
MIC Streptococcus pneumoniae (GC 4565) (Streptococcus sp.; [4]): 64 µg/mL (≈ 60.3 µM)
MIC Streptococcus pyogenes (GC 4563) (Streptococcus sp.; [5]): 32 µg/mL (≈ 30.1 µM)
MIC Streptococcus agalactiae (GC 4564) (Streptococcus sp.): 32 µg/mL (≈ 30.1 µM)
MIC Streptococcus pneumoniae (ATCC 6301) (Streptococcus sp.): 32 µg/mL (≈ 30.1 µM)
MIC Streptococcus pneumoniae (GC 1894) (Streptococcus sp.): 32 µg/mL (≈ 30.1 µM)
MIC Streptococcus pneumoniae (GC 4565) (Streptococcus sp.): 64 µg/mL (≈ 60.3 µM)
MIC Streptococcus pyogenes (GC 4563) (Streptococcus sp.): 32 µg/mL (≈ 30.1 µM)
MIC Enterococcus avium (GC 4558) (Enterococcus sp.; Enterococcus avium (GC 4558)): 64 µg/mL (≈ 60.3 µM)
MIC Enterococcus faecalis (GC 4553) (Enterococcus sp.; [6]): 64 µg/mL (≈ 60.3 µM)
MIC Enterococcus faecium (GC 4557) (Enterococcus sp.; Enterococcus faecium (GC 4557)): 32 µg/mL (≈ 30.1 µM)
MIC Enterococcus avium (GC 4558) (Enterococcus sp.): 64 µg/mL (≈ 60.3 µM)
MIC Enterococcus faecalis (GC 4553) (Enterococcus sp.): 64 µg/mL (≈ 60.3 µM)
MIC Enterococcus faecium (GC 4557) (Enterococcus sp.): 32 µg/mL (≈ 30.1 µM)
MIC Coagulase Negative Staphylococcus (GC 4547) (Staphylococcus sp.): 32 µg/mL (≈ 30.1 µM)
MIC Coagulase Negative Staphylococcus (GC 4548) (Staphylococcus sp.): 32 µg/mL (≈ 30.1 µM)
MIC Coagulase Negative Staphylococcus (GC 4549) (Staphylococcus sp.): 64 µg/mL (≈ 60.3 µM)
MIC Coagulase Negative Staphylococcus (GC 4551) (Staphylococcus sp.): 64 µg/mL (≈ 60.3 µM)
MIC Coagulase Negative Staphylococcus (GC 6257) (Staphylococcus sp.): 16 µg/mL (≈ 15.1 µM)
MIC Staphylococcus aureus SMITH (GC 4543) (Staphylococcus sp.): 64 µg/mL (≈ 60.3 µM)
MIC Staphylococcus aureus-SMITH (GC 4543) (Staphylococcus sp.): 64 µg/mL (≈ 60.3 µM)
MIC Escherichia coli (ATCC 25922) (Escherichia coli): 64 µg/mL (≈ 60.3 µM)
MIC Escherichia coli (GC 4559) (Escherichia coli): 64 µg/mL (≈ 60.3 µM)
MIC Escherichia coli (GC 4560) (Escherichia coli): 32 µg/mL (≈ 30.1 µM)
SMILES: CC(c1ccccc1)C1NC(=O)CNC(=O)C(CO)NC(=O)C(C(O)C2CNC(=N)N2C2OC(CO)C(O)C(O)C2O)NC(=O)C(C(O)C2CNC(=N)N2)NC(=O)C(Cc2ccc3oc(-c4ccoc4)nc3c2)NC1=O (stereo not drawn) [Example 38, Cyclo[3-[2-(3-furyl)-1,3-benzoxazol-5-yl]alanyl-3-(2-iminoimidazolidin-4-yl)seryl-3-(3-hexopyranosyl-2-iminoimidazolidin-4-yl)serylserylglycyl-β-methylphenylalanyl]]
MIC Staphylococcus haemolyticus (GC 4546) (Staphylococcus sp.): 16 µg/mL (≈ 15.1 µM)

Source: US8247211B2, “Glycopeptide antibiotics” (American Cyanamid Company, priority 2001, dated 2012)
